Source: article PMC8205226, “HIV-1 Integrase Inhibitors with Modifications That Affect Their Potencies against Drug Resistant Integrase Mutants” (ACS Infectious Diseases, 2021)
Where two headings read alike, the source gives them in different places.

Legend:
Format in all cases: cell-based
HIV-1 IN mutant Y143H = assay: single-round infectivity assay, Y143H IN mutant
Procedure: (§1) Figure 4 Mutations in the β5-α3 loop affect the antiviral potencies of the new compounds. The EC50 values were determined using a vector that carries the IN mutant in a single round infection assay. […] Error bars represent the standard deviations of independent experiments, n = 4, performed in triplicate.
(§2) WT and mutant HIV-1 viral vectors were used in single-round infectivity assays to determine the antiviral potencies (EC50 values) of the compounds and the effects of the mutants on the EC50 values as previously described.[30],[54] Single round infectivity measurements were determined as done previously.[38]
(§3) The vector pNLNgoMIVR-ΔENV.LUC has been described previously.[26] To produce the new IN mutants used in this study, the IN open reading frame was removed from pNLNgoMIVR-ΔENV.LUC by digestion with KpnI and SalI, and the resulting fragment was inserted between the KpnI and SalI sites of pBluescript KS+. Using that construct as the wild-type template, we prepared the following HIV-1 IN mutants using the QuikChange II XL site directed mutagenesis kit (Agilent Technologies, Santa Clara, CA) protocol: N117A, N117H, P142A, P142H, P142S, Y143C, Y143H, S230R, R231G, and R231K. The following sense oligonucleotides were used with matching cognate antisense oligonucleotides (not shown) (Integrated DNA Technologies, Coralville, IA) in the mutagenesis: N117A, 5′-[…]-3′; N117H, 5′-[…]-3′; P142A, 5′-[…]-3′; P142H, 5′-[…]-3′; P142S, 5′-[…]-3′; Y143C, 5′- […]-3′; Y143H, 5′-[…]-3′; S230R, 5′- […]-3′; R231G, 5′-[…]-3′; R231K, 5′-[…]-3′.

HIV-1 IN mutant P142H = assay: single-round infectivity assay, P142H IN mutant
Procedure: (§4) The EC50 values were determined using a vector that carries the IN mutant in a single round infection assay. […] Error bars represent the standard deviations of independent experiments, n = 4, performed in triplicate.
Single round infectivity measurements were determined as done previously.[38]
as §3

HIV-1 IN mutant S119R = assay: single-round infectivity assay, S119R IN mutant
Procedure: as §4, §2, §3

WT HIV-1 = assay: single-round infectivity assay, WT HIV-1 IN vector; conditions: new compounds
Procedure: (§5) Figure 2 Antiviral activities of the new compounds against RAL-resistant mutants. The EC50 values were determined using a vector that carries WT HIV-1 IN and the RAL-resistant mutants in a single round infection assay. […] Error bars represent the standard deviations of independent experiments, n = 4, performed in triplicate. The graph has a maximum value of 550 nM.
as §2, §3

HIV-1 IN mutant N117A = assay: single-round infectivity assay, N117A IN mutant
Procedure: as §4, §2, §3

HIV-1 IN mutant Y143R = assay: single-round infectivity assay, Y143R IN mutant
Procedure: as §5, §2, §3

HIV-1 IN mutant P142A = assay: single-round infectivity assay, P142A IN mutant
Procedure: as §1, §2, §3

HIV-1 IN mutant R231G = assay: single-round infectivity assay, R231G IN mutant
Procedure: as §4, with “Figure 5 Antiviral potencies of the new compounds against IN with mutations in the […]. The” for “The”
as §2, §3

[1] = tested on: HIV-1 IN double mutant G140S/Q148H; assay: single-round infectivity assay, G140S/Q148H IN double mutant
Procedure: as §5, §2, §3

HIV-1 IN mutant N155H = assay: single-round infectivity assay, N155H IN mutant
Procedure: as §5, §2, §3

HIV-1 IN mutant R231K = assay: single-round infectivity assay, R231K IN mutant
Procedure: as §4, with “Figure 5 Antiviral potencies of the new compounds against IN with mutations in the […]. The” for “The”
as §2, §3

HIV-1 IN mutant G118R = assay: single-round infectivity assay, G118R IN mutant
Procedure: as §4, §2, §3

HIV-1 IN mutant S230R = assay: single-round infectivity assay, S230R IN mutant
Procedure: as §4, with “Figure 5 Antiviral potencies of the new compounds against IN with mutations in the […]. The” for “The”
as §2, §3

HIV-1 IN mutant N117H = assay: single-round infectivity assay, N117H IN mutant
Procedure: as §4, §2, §3

HIV-1 IN mutant P142S = assay: single-round infectivity assay, P142S IN mutant
Procedure: as §1, §2, §3

HIV-1 IN mutant Y143C = assay: single-round infectivity assay, Y143C IN mutant
Procedure: as §1, §2, §3

[2] = fold change in EC50, IN mutant versus WT HIV-1

Nc1c(C(=O)NCc2ccc(F)cc2F)c(=O)n(O)c2ncc(CCS(=O)(=O)CCN3CCOCC3)cc12 [6v, 4-Amino-N-(2,4-difluorobenzyl)-1-hydroxy-6-(2-((2-morpholinoethyl)sulfonyl)ethyl)-2-oxo-1,2-dihydro-1,8-naphthyridine-3-carboxamide]
ratio of the EC50s (our compound relative to DTG) against Y143H (HIV-1 IN mutant Y143H; EC50 compound / EC50 DTG): 172.0 | EC50 (HIV-1 IN mutant Y143H; Human immunodeficiency virus 1, read-out: EC50 values Y143H, single round infection, n = 4): 0.378 ± 0.0389 µM | FC Y143H (HIV-1 IN mutant Y143H; [2]): 1.4 | ratio of the EC50s (our compound relative to DTG) against P142H (HIV-1 IN mutant P142H; EC50 compound / EC50 DTG): 159.9 | EC50 (HIV-1 IN mutant P142H; Human immunodeficiency virus 1, read-out: EC50 values P142H): 0.448 ± 0.0358 µM | ratio of the EC50s (our compound relative to DTG) against S119R (HIV-1 IN mutant S119R; EC50 compound / EC50 DTG): 213.0 | EC50 (HIV-1 IN mutant S119R; Human immunodeficiency virus 1, read-out: EC50 values S119R): 0.49 ± 0.0431 µM | FC S119R (HIV-1 IN mutant S119R; [2]): 1.8 | EC50 (WT HIV-1; Human immunodeficiency virus 1, read-out: EC50 values WT, vector carrying WT HIV-1 IN, single round infection, n = 4): 0.268 ± 0.0688 µM | EC50 (WT HIV-1; read-out: EC50 values WT, vector carrying WT HIV-1 IN, single round infection, n = 4): > 0.25 µM | ratio of the EC50s (our compound relative to DTG) against N117A (HIV-1 IN mutant N117A; EC50 compound / EC50 DTG): 319.0 | EC50 (HIV-1 IN mutant N117A; Human immunodeficiency virus 1, read-out: EC50 values N117A): 0.16 µM | FC N117A (HIV-1 IN mutant N117A; [2]): 0.6 | ratio of the EC50s (our compound relative to DTG) against Y143R (HIV-1 IN mutant Y143R; EC50 compound / EC50 DTG): 25.3 | EC50 (HIV-1 IN mutant Y143R; Human immunodeficiency virus 1, read-out: EC50 values Y143R): 0.109 ± 0.0162 µM | FC Y143R (HIV-1 IN mutant Y143R; [2]): 0.4 | ratio of the EC50s (our compound relative to DTG) against P142A (HIV-1 IN mutant P142A; EC50 compound / EC50 DTG): 145.9 | EC50 (HIV-1 IN mutant P142A; Human immunodeficiency virus 1, read-out: EC50 values P142A): 0.365 ± 0.0394 µM | ratio of the EC50s (our compound relative to DTG) against R231G (HIV-1 IN mutant R231G; EC50 compound / EC50 DTG): 133.8 | EC50 (HIV-1 IN mutant R231G; Human immunodeficiency virus 1, read-out: EC50 values R231G): 0.187 ± 0.017 µM | FC R231G (HIV-1 IN mutant R231G; [2]): 0.7 | ratio of the EC50s (our compound relative to DTG) against G140S/Q148H ([1]; EC50 compound / EC50 DTG): 71.1 | EC50 ([1]; Human immunodeficiency virus 1, read-out: EC50 values G140S/Q148H): 0.413 ± 0.12 µM | FC G140S/Q148H [1, 2]: 1.5 | ratio of the EC50s (our compound relative to DTG) against N155H (HIV-1 IN mutant N155H; EC50 compound / EC50 DTG): 38.8 | EC50 (HIV-1 IN mutant N155H; Human immunodeficiency virus 1, read-out: EC50 values N155H): 0.14 ± 0.0049 µM | FC N155H (HIV-1 IN mutant N155H; [2]): 0.5 | ratio of the EC50s (our compound relative to DTG) against R231K (HIV-1 IN mutant R231K; EC50 compound / EC50 DTG): 97.9 | EC50 (HIV-1 IN mutant R231K; Human immunodeficiency virus 1, read-out: EC50 values R231K, single round infection, n = 4): 0.411 ± 0.058 µM | FC R231K (HIV-1 IN mutant R231K; [2]): 1.5 | ratio of the EC50s (our compound relative to DTG) against G118R (HIV-1 IN mutant G118R; EC50 compound / EC50 DTG): 88.3 | EC50 (HIV-1 IN mutant G118R; Human immunodeficiency virus 1, read-out: EC50 values G118R): 1.15 ± 0.27 µM | FC G118R (HIV-1 IN mutant G118R; [2]): 4.3 | ratio of the EC50s (our compound relative to DTG) against S230R (HIV-1 IN mutant S230R; EC50 compound / EC50 DTG): 134.0 | EC50 (HIV-1 IN mutant S230R; Human immunodeficiency virus 1, read-out: EC50 values S230R): 0.616 ± 0.0798 µM | FC S230R (HIV-1 IN mutant S230R; [2]): 2.3 | ratio of the EC50s (our compound relative to DTG) against N117H (HIV-1 IN mutant N117H; EC50 compound / EC50 DTG): 207.3 | EC50 (HIV-1 IN mutant N117H; Human immunodeficiency virus 1, read-out: EC50 values N117H): 0.497 µM | FC N117H (HIV-1 IN mutant N117H; [2]): 1.9 | ratio of the EC50s (our compound relative to DTG) against P142S (HIV-1 IN mutant P142S; EC50 compound / EC50 DTG): 156.4 | EC50 (HIV-1 IN mutant P142S; Human immunodeficiency virus 1, read-out: EC50 values P142S): 0.344 ± 0.0269 µM | ratio of the EC50s (our compound relative to DTG) against Y143C (HIV-1 IN mutant Y143C; EC50 compound / EC50 DTG): 308.4 | EC50 (HIV-1 IN mutant Y143C; Human immunodeficiency virus 1, read-out: EC50 values Y143C, single round infection, n = 4): 0.432 ± 0.0753 µM | FC Y143C (HIV-1 IN mutant Y143C; [2]): 1.6
